Reference: ChEMBL document CHEMBL1150587, “Evaluation of the potential cancer chemotherapeutic efficacy of natural product isolates employing in vivo hollow fiber tests” (J Nat Prod, 2002)
Calls of active or inactive are those of the source. No cut-off for these calls is given here.

Assays:
Mus musculus [1] = assay: Toxicity in tumor cell implanted NCr nu/nu mouse assessed as body weight change at 4.39 umol/kg, ip administered from day 3 to 6 after implantation measured on day 7; assay type: organism-based; details: in vivo
Mus musculus [2] = assay: Toxicity in tumor cell implanted NCr nu/nu mouse assessed as body weight change at 8.78 umol/kg, ip administered from day 3 to 6 after implantation measured on day 7; assay type: organism-based; details: in vivo
Mus musculus [3] = assay: Toxicity in tumor cell implanted NCr nu/nu mouse assessed as body weight change at 17.6 umol/kg, ip administered from day 3 to 6 after implantation measured on day 7; assay type: organism-based; details: in vivo
Mus musculus [4] = assay: Toxicity in tumor cell implanted NCr nu/nu mouse assessed as body weight change at 35.1 umol/kg, ip administered from day 3 to 6 after implantation measured on day 7; assay type: organism-based; details: in vivo
Mus musculus [5] = assay: Toxicity in NCr nu/nu mouse subcutaneously implanted with human KB cells assessed as mortality at 4.39 umol/kg, ip administered on day 10, 13, 16, 20 of implantation; assay type: organism-based; details: in vivo
Mus musculus [6] = assay: Toxicity in NCr nu/nu mouse subcutaneously implanted with human KB cells assessed as mortality at 8.78 umol/kg, ip administered on day 10, 13, 16, 20 of implantation; assay type: organism-based; details: in vivo
Mus musculus [7] = assay: Toxicity in NCr nu/nu mouse subcutaneously implanted with human KB cells assessed as mortality at 17.6 umol/kg, ip administered on day 10, 13, 16, 20 of implantation; assay type: organism-based; details: in vivo
Mus musculus [8] = assay: Toxicity in NCr nu/nu mouse subcutaneously implanted with human KB cells assessed as change in body weight at 4.39 umol/kg, ip administered on day 10, 13, 16, 20 of implantation; assay type: organism-based; details: in vivo
Mus musculus [9] = assay: Toxicity in NCr nu/nu mouse subcutaneously implanted with human KB cells assessed as change in body weight at 8.78 umol/kg, ip administered on day 10, 13, 16, 20 of implantation; assay type: organism-based; details: in vivo
Mus musculus [10] = assay: Toxicity in NCr nu/nu mouse subcutaneously implanted with human KB cells assessed as change in body weight at 17.6 umol/kg, ip administered on day 10, 13, 16, 20 of implantation; assay type: organism-based; details: in vivo
Mus musculus [11] = assay: Toxicity in NCr nu/nu mouse subcutaneously implanted with human KB cells assessed as change in body weight at 35.1 umol/kg, ip administered on day 10, 13, 16, 20 of implantation; assay type: organism-based; details: in vivo
SW626 [12] = assay: Growth inhibition of human SW626 cells implanted intraperitoneally to NCr nu/nu mouse at 4.39 to 35.1 umol/kg, ip administered from day 3 to 6 after implantation measured on day 7 by MTT-based hollow-fiber test; assay type: functional
KB [13] = assay: Growth inhibition of human KB cells implanted subcutaneously to NCr nu/nu mouse at 4.39 to 35.1 umol/kg, ip administered from day 3 to 6 after implantation measured on day 7 by MTT-based hollow-fiber test; assay type: functional
[14] = Growth inhibition of human KBV1 cells implanted subcutaneously to NCr nu/nu mouse at 4.39 to 35.1 umol/kg, ip administered from day 3 to 6 after implantation measured on day 7 by MTT-based hollow-fiber test; assay type: functional, KB-V1
SW626 [15] = assay: Growth inhibition of human SW626 cells implanted subcutaneously to NCr nu/nu mouse at 4.39 to 35.1 umol/kg, ip administered from day 3 to 6 after implantation measured on day 7 by MTT-based hollow-fiber test; assay type: functional
KB [16] = assay: Growth inhibition of human KB cells implanted subcutaneously to NCr nu/nu mouse assessed as tumor size at 4.39 to 28.5 umol/kg, ip administered on day 10, 13, 16, 20 of implantation; assay type: functional, organism-based
SK-MEL-2 = assay: Cytotoxicity against human SK-MEL-2 cells after 72 hrs by SRB assay; assay type: functional, cell-based; details: SK-MEL-2, 72 h
P388 = assay: Cytotoxicity against mouse P388 cells after 72 hrs by SRB assay; assay type: functional, cell-based; details: P388, 72 h
LNCaP = assay: Cytotoxicity against human LNCAP cells after 72 hrs by SRB assay; assay type: functional, cell-based
Lu1 = assay: Cytotoxicity against human Lu1 cells after 72 hrs by SRB assay; assay type: functional, cell-based; details: Lu1, 72 h
[17] = Cytotoxicity against human KBV1 cells after 72 hrs by SRB assay; assay type: functional, cell-based; details: KB-V1, 72 h
KB [18] = assay: Cytotoxicity against human KB cells after 72 hrs by SRB assay; assay type: functional, cell-based
Col2 = assay: Cytotoxicity against human Col2 cells after 72 hrs by SRB assay; assay type: functional, cell-based; details: Col2, 72 h
SW626 [19] = assay: Cytotoxicity against human SW626 cells after 72 hrs by SRB assay; assay type: functional, cell-based; details: SW626, 72 h
KB [20] = assay: Growth inhibition of human KB cells implanted intraperitoneally to NCr nu/nu mouse at 4.39 to 35.1 umol/kg, ip administered from day 3 to 6 after implantation measured on day 7 by MTT-based hollow-fiber test; assay type: functional
[21] = Growth inhibition of human KBV1 cells implanted intraperitoneally to NCr nu/nu mouse at 4.39 to 35.1 umol/kg, ip administered from day 3 to 6 after implantation measured on day 7 by MTT-based hollow-fiber test; assay type: functional, KB-V1
SW626 [22] = assay: Growth inhibition of human SW626 cells implanted intraperitoneally to NCr nu/nu mouse at 128 to 512 umol/kg, ip administered from day 3 to 6 after implantation measured on day 7 by MTT-based hollow-fiber test; assay type: functional
SW626 [23] = assay: Growth inhibition of human SW626 cells implanted subcutaneously to NCr nu/nu mouse at 128 to 512 umol/kg, ip administered from day 3 to 6 after implantation measured on day 7 by MTT-based hollow-fiber test; assay type: functional
Mus musculus [24] = assay: Toxicity in NCr nu/nu mouse subcutaneously implanted with human SW626 cells assessed as body weight change at 128 to 512 umol/kg, ip administered from day 3 to 6 after implantation measured on day 7; assay type: organism-based; details: in vivo
MCF7 = assay: Cytotoxicity against human MCF7 cells after 72 hrs by SRB assay; details: MCF7, 72 h
[25] = Cytotoxicity against human BC1 cells after 72 hrs by SRB assay; details: BC1, 72 h

Which results are given for `CC(=O)O[C@H]1C(=O)[C@@]2(C)[C@H]([C@H](OC(=O)c3ccccc3)[C@]3(O)C[C@H](OC(=O)[C@H](O)[C@@H](NC(=O)c4ccccc4)c4ccccc4)C(C)=C1C3(C)C)[C@]1(OC(C)=O)CO[C@@H]1C[C@@H]2O` [PACLITAXEL]?
Activity (Mus musculus [1]): 1.7 g; Activity (Mus musculus [2]): 1.4 g; Activity (Mus musculus [3]): 1.8 g; Activity (Mus musculus [4]): 1.1 g; Activity (Mus musculus [5]): Non-toxic; Activity (Mus musculus [6]): Non-toxic; Activity (Mus musculus [7]): Non-toxic; Activity (Mus musculus [8]): 9.4%; Activity (Mus musculus [9]): 6.7%; Activity (Mus musculus [10]): 8.2%; Activity (Mus musculus [11]): 7.8%; inhibition (INH) (SW626 [12]): 98.7%; inhibition (INH) (KB [13]): 19.5%; inhibition (INH) [14]: 13.1%; inhibition (INH) (SW626 [15]): 0%; Activity (KB [16]): inactive; IC50 (SK-MEL-2): 0.07 µM; IC50 (P388): 0.02 µM; IC50 (LNCaP): 0.02 µM; IC50 (Lu1): 0.01 µM; IC50 [17]: > 2.3 µM; IC50 (KB [18]): 0.02 µM; IC50 (Col2): 0.02 µM; IC50 (SW626 [19]): 1e-05 µM; inhibition (INH) (KB [20]): 70.2%; inhibition (INH) [21]: 0%

With `CC1(C)CCC2=C(O1)C(=O)c1ccccc1C2=O` [ALPHA-LAPACHONE] as the compound, how does the “inhibition (INH)” value (SW626 [22]) read?
Its value is 0%.

And the “inhibition (INH)” value (SW626 [23])?
Its value is 10.3%.

And the Activity (Mus musculus [24])?
Its Activity is 0.3 g.

What about the IC50 (SK-MEL-2) of the same compound?
Its IC50 is 7.9 µM.

What about the IC50 (P388) of the same compound?
Its IC50 is 0.8 µM.

What about the IC50 (MCF7) of the same compound?
Its IC50 is 38 µM.

What about the IC50 (LNCaP) of the same compound?
The IC50 was 29.3 µM.

And the IC50 (Lu1)?
The IC50 was 21.9 µM.

And the IC50 [17]?
The IC50 was 34.3 µM.

And the IC50 (KB [18])?
Its IC50 is 53.7 µM.

And the IC50 (Col2)?
Its IC50 is 40.9 µM.

What about the IC50 [25] of the same compound?
The IC50 was 27.7 µM.

What about the IC50 (SW626 [19]) of the same compound?
Its IC50 is 12.4 µM.
